Results taken from the supplement of paper PMC13380429.
± gives the standard deviation of the averaged measurements.

Assays:
Conditions in all cases: 72 h
Calu-3 [1] = assay: relative viability EC50 (midpoint between 100% and the lowest measured viability); higher = less toxic
Vero E6 [2] = assay: as above
HepG2 [3] = assay: as above
U2OS [4] = assay: as above
Caco-2 [5] = assay: as above
Calu-3 [6] = assay: drug sensitivity score (DSS) for viability; higher = more toxic; extreme values may be limits of the assay
Vero E6 [7] = assay: as above
HepG2 [8] = assay: as above
U2OS [9] = assay: as above
Caco-2 [10] = assay: as above
Calu-3 [11] = assay: cell viability relative to DMSO; higher = less toxic
Vero E6 [12] = assay: as above
HepG2 [13] = assay: as above
U2OS [14] = assay: as above
Caco-2 [15] = assay: as above

SMILES | relative viability EC50 (Calu-3 [1]) | relative viability EC50 (Vero E6 [2]) | relative viability EC50 (HepG2 [3]) | relative viability EC50 (U2OS [4]) | relative viability EC50 (Caco-2 [5]) | drug sensitivity score (Calu-3 [6]) | drug sensitivity score (Vero E6 [7]) | drug sensitivity score (HepG2 [8]) | drug sensitivity score (U2OS [9]) | drug sensitivity score (Caco-2 [10]) | cell viability (Calu-3 [11]; 1 nM) | cell viability (Calu-3 [11]; 10 nM) | cell viability (Calu-3 [11]; 100 nM) | cell viability (Calu-3 [11]; 1000 nM) | cell viability (Calu-3 [11]; 10000 nM) | cell viability (Vero E6 [12]; 1 nM) | cell viability (Vero E6 [12]; 10 nM) | cell viability (Vero E6 [12]; 100 nM) | cell viability (Vero E6 [12]; 1000 nM) | cell viability (Vero E6 [12]; 10000 nM) | cell viability (HepG2 [13]; 1 nM) | cell viability (HepG2 [13]; 10 nM) | cell viability (HepG2 [13]; 100 nM) | cell viability (HepG2 [13]; 1000 nM) | cell viability (HepG2 [13]; 10000 nM) | cell viability (U2OS [14]; 1 nM) | cell viability (U2OS [14]; 10 nM) | cell viability (U2OS [14]; 100 nM) | cell viability (U2OS [14]; 1000 nM) | cell viability (U2OS [14]; 10000 nM) | cell viability (Caco-2 [15]; 1 nM) | cell viability (Caco-2 [15]; 10 nM) | cell viability (Caco-2 [15]; 100 nM) | cell viability (Caco-2 [15]; 1000 nM) | cell viability (Caco-2 [15]; 10000 nM)
Cc1[nH]c(/C=C2\C(=O)Nc3cc(-c4ccccc4)ccc32)c(C)c1CCC(=O)O [SU16f] | > 10 µM | > 10 µM | > 10 µM | > 10 µM | > 10 µM | 0 | 0 | 1 | 0.1 | 0.7 | 99.8% | 108% | 107% | 103% | 104% | 92.9% | 93.3% | 93.8% | 92.8% | 87% | 92.3% | 95.1% | 87.6% | 97.9% | 76.8% | 104% | 97% | 102% | 95.5% | 89.1% | 98.7% | 100% | 97.5% | 91.9% | 83.3%
CCc1nn(CCO)c(CC)c1Oc1cc(C#N)cc(C#N)c1 [lersivirine] | > 10 µM | > 10 µM | > 10 µM | > 10 µM | > 10 µM | 0 | 0 | 0 | 0 | 0 | 102% | 99.4% | 107% | 114% | 104% | 96.8% | 95.6% | 97.5% | 90.8% | 100% | 92.1% | 110% | 94.7% | 95.9% | 105% | 100% | 97.6% | 95.7% | 102% | 102% | 109% | 95.8% | 97.9% | 98.8% | 105%
COc1ccc(-c2cnc3c(-c4cccc5ncccc45)cnn3c2)cc1 [ML347] | > 10 µM | > 10 µM | > 10 µM | > 10 µM | > 10 µM | 0.1 ± 0.14 | 0 | 0 | 0 | 0 | 106 ± 9.3% | 101 ± 7.9% | 99.5 ± 2.8% | 101 ± 4.9% | 93.4 ± 8.5% | 102% | 100% | 99% | 99.3% | 105% | 105 ± 4% | 96 ± 9.3% | 99.3 ± 3.2% | 98.1 ± 0.57% | 97.2 ± 6.9% | 101 ± 2% | 100 ± 3.1% | 105 ± 6.3% | 102 ± 1.8% | 96.8 ± 4.3% | 107 ± 14% | 100 ± 5.3% | 96.5 ± 2% | 96.05 ± 0.35% | 98.9 ± 8.6%
COc1cccc(OC)c1C(=O)N[C@@H]1C(=O)N2[C@@H]1SC(C)(C)[C@@H]2C(=O)O [methicillin] | > 10 µM | > 10 µM | > 10 µM | > 10 µM | > 10 µM | 0 | 0 | 0 | 0 | 0 | 105% | 99.1% | 97% | 99.1% | 102% | 107% | 98.6% | 94.9% | 102% | 87.9% | 96% | 96.1% | 87% | 106% | 107% | 105% | 94.7% | 99.6% | 99% | 99.8% | 95.2% | 97.2% | 101% | 91.4% | 96.5%
COc1ccc(CCN2CCN(CCCc3ccccc3)CC2)cc1OC [cutamesine] | > 10 µM | > 10 µM | > 10 µM | > 10 µM | > 10 µM | 0 | 0 | 0 | 0 | 0 | 95.9% | 110% | 102% | 119% | 96.8% | 102% | 92.5% | 102% | 96.2% | 95.6% | 91.5% | 97.2% | 88.9% | 98.4% | 85% | 106% | 100% | 104% | 93.5% | 96.8% | 97.9% | 95.6% | 96% | 92.9% | 98%
CC(C)(CO)c1cc2cc(NC(=O)C3(c4ccc5c(c4)OC(F)(F)O5)CC3)c(F)cc2n1C[C@@H](O)CO [tezacaftor] | > 10 µM | > 10 µM | > 10 µM | > 10 µM | > 10 µM | 0 | 0 | 0 | 0 | 0 | 101% | 96.8% | 104% | 104% | 106% | 90.3% | 98.2% | 92.4% | 94.6% | 93.1% | 113% | 102% | 94.1% | 97.2% | 96.3% | 99.2% | 96.7% | 101% | 97.7% | 93.2% | 101% | 98.1% | 96.3% | 89.1% | 98.8%
O=C(O)Cn1nnc(-c2cc(N3CCC(Oc4cc(F)ccc4Br)CC3)no2)n1 [MK-8245] | > 10 µM | > 10 µM | > 10 µM | > 10 µM | > 10 µM | 0 | 0.1 | 2.2 | 0 | 0 | 102% | 108% | 97.7% | 90.8% | 96.5% | 98.3% | 94.8% | 98.8% | 92.2% | 86.3% | 109% | 95.8% | 88.3% | 88.8% | 76.1% | 103% | 102% | 96.2% | 101% | 98.6% | 101% | 106% | 99.5% | 102% | 94.8%
Cc1ncc(C[n+]2csc(CCOP(=O)(O)OP(=O)(O)O)c2C)c(N)n1 [thiamine-pyrophosphate] | > 10 µM | > 10 µM | > 10 µM | > 10 µM | > 10 µM | 0 | 0 | 0 | 0 | 0 | 98.5% | 98% | 104% | 94% | 103% | 91.8% | 101% | 92.6% | 96.1% | 110% | 95.7% | 112% | 97.4% | 110% | 134% | 95.7% | 95.1% | 104% | 95.9% | 98.2% | 95.4% | 88.1% | 106% | 95.5% | 104%
CNCCCN1c2ccccc2CCc2ccccc21 [desipramine] | > 10 µM | > 10 µM | > 10 µM | > 10 µM | > 10 µM | 0 | 0 | 0 | 0 | 0 | 104% | 101% | 104% | 109% | 96.2% | 107% | 103% | 97% | 102% | 99.9% | 119% | 114% | 105% | 113% | 89% | 104% | 102% | 104% | 98.1% | 97.1% | 98.9% | 111% | 102% | 94.3% | 90.6%
Fc1ccccc1-c1nc2ccn(Cc3ccc(-c4ccc(C(F)(F)F)cc4C(F)(F)F)nn3)cc-2n1 [tegobuvir] | > 10 µM | > 10 µM | > 10 µM | > 10 µM | > 10 µM | 0 | 0 | 1.6 | 0 | 0 | 98.2% | 93.9% | 104% | 90.3% | 104% | 103% | 101% | 100% | 96.1% | 98.9% | 103% | 97.3% | 103% | 87.6% | 81.6% | 101% | 102% | 97.2% | 102% | 100% | 101% | 97.8% | 95% | 99.2% | 97.1%
COC(=O)C1=C(C)NC(C)=C(C(=O)OC)C1c1ccccc1[N+](=O)[O-] [nifedipine] | > 10 µM | > 10 µM | > 10 µM | > 10 µM | > 10 µM | 0 | 0 | 0 | 0 | 1.3 | – | – | – | – | – | 99.5% | 103% | 106% | 101% | 94.9% | 95.7% | 84.8% | 96.8% | 117% | 102% | 104% | 102% | 103% | 100% | 96.6% | 112% | 100% | 90.4% | 96.8% | 76.8%
c1ccc2c(c1)Sc1ccccc1N2C[C@H]1CN2CCC1CC2 [levomequitazine] | > 10 µM | > 10 µM | > 10 µM | > 10 µM | > 10 µM | 0 | 0 | 0.2 | 0 | 0.3 | 105% | 104% | 102% | 108% | 86.3% | 115% | 98.2% | 99.3% | 98.6% | 93.5% | 104% | 97.7% | 97.9% | 98.2% | 86.9% | 97.6% | 102% | 97.8% | 101% | 90.4% | 99.6% | 106% | 106% | 105% | 82.6%
CNC(=O)N(C)N=O [nitrosodimethylurea] | > 10 µM | > 10 µM | > 10 µM | > 10 µM | > 10 µM | 0 | 0 | 0 | 0 | 0 | 111% | 103% | 100% | 91.6% | 109% | 93.6% | 92.4% | 95.4% | 86.3% | 97.9% | 88.6% | 100% | 103% | 100% | 97.7% | 99.8% | 95.7% | 95.1% | 98% | 108% | 85.7% | 106% | 94.7% | 86.9% | 116%
Nc1ccn([C@H]2CC[C@@H](CO)O2)c(=O)n1 [zalcitabine] | > 10 µM | > 10 µM | > 10 µM | > 10 µM | > 10 µM | 0 | 0 | 0 | 0 | 0 | 99.2% | 91.1% | 103% | 101% | 106% | 102% | 104% | 100% | 99.1% | 90.9% | 101% | 93.1% | 98.3% | 94.8% | 98.9% | 101% | 105% | 94.2% | 97.2% | 99.1% | 94.2% | 99.2% | 90.6% | 93.5% | 98.7%
